From publication PMC12045974, “T cell toxicity induced by tigecycline binding to the mitochondrial ribosome” (Nature Communications, 2025)
Where “and” joins values, the source holds several entries; their conditions need not be identical. Equal entries are not always repeated.

Key:
Hek293 cells = assay: Cell viability assay (CCK-8), Hek293 cells; format: cell-based, human; conditions: in % (unit assumed)
Procedure: (§1) Cells were seeded in 96-well plates ranging from 2000 to 15,000 cells per well depending on different cell lines and treated with antibiotics in serial dilutions for 72 h (120 h for the preliminary assays) in a humidified incubator (37 °C, 5% CO2) in 100 μl medium (DMEM with 10% FBS, 2.05 mM L-glutamine (Sigma) for Hek293 and Hela; RPMI-1640 with 10% FBS, 2.05 mM L-glutamine (Sigma), and 55 μM 2-ME (Gibco) for Jurkat T cells and PBMCs). Based on preliminary tests, the number of cells per well was optimized to 2000 for Hela and Hek293, 6000 for Jurkat T cells, and 15,000 for PBMCs. The stocks of antibiotics were prepared by dissolving in DMSO. As control, the same amount of DMSO was added to the non-treated groups. Serial drug dilutions were prepared in the corresponding medium to provide a total of 9 concentrations up to 300 μM for tetracyclines and up to 900 μM for additional bacterial protein synthesis inhibitors. After drug treatment, 10% CCK-8 (Cell Counting Kit-8, Sigma Aldrich) (10 μl per well) of the total volume was added to the cells and incubated for 1–4 h depending on cell lines (1 h for Hela and Hek293; 3 h for Jurkat T cells; 4 h for PBMCs) before the evaluation of the effect of antibiotics on cell viability. […] Results were visually confirmed under the light microscope. Each treatment was performed in technical repeats. Dose-response curves were plotted, mean ± SEM was shown, and half maximal inhibitory concentration (IC50) values were calculated in GraphPad Prism.

Jurkat T cells = assay: Cell viability assay (CCK-8), Jurkat T cells; format: cell-based, human; conditions: Jurkat, in % (unit assumed)
Procedure: as §1

HeLa cells = assay: Cell viability assay (CCK-8), HeLa cells; format: cell-based; conditions: Hela, in % (unit assumed)
Procedure: as §1

PBMCs = assay: Cell viability assay (CCK-8), PBMCs; format: cell-based, human; conditions: Homo sapiens, PBMC, 72 h, PBMCs, Fig. 1A, read-out: cell vialibity normalized to Vehicle (DMSO)
Procedure: as §1, with “Buffy coats were ordered from anonymous blood donors at […]. […] Cells” for “Cells”, “1-4” for “1–4”

Row | Structure (SMILES) | cell vialibity normalized to Vehicle (DMSO) (Hek293 cells; HEK293, dose 0.137174 μM) | cell vialibity normalized to Vehicle (DMSO) (Hek293 cells; HEK293, dose 0.411523 μM) | cell vialibity normalized to Vehicle (DMSO) (Hek293 cells; HEK293, dose 1.23457 μM) | cell vialibity normalized to Vehicle (DMSO) (Hek293 cells; HEK293, dose 11.1111 μM) | cell vialibity normalized to Vehicle (DMSO) (Hek293 cells; HEK293, dose 33.3333 μM) | cell vialibity normalized to Vehicle (DMSO) (Hek293 cells; HEK293, dose 100 μM) | cell vialibity normalized to Vehicle (DMSO) (Hek293 cells; HEK293, dose 300 μM) | cell vialibity normalized to Vehicle (DMSO) (Hek293 cells; HEK293, dose 900 μM) | cell vialibity normalized to Vehicle (DMSO) (Jurkat T cells; dose 0.137174 μM) | cell vialibity normalized to Vehicle (DMSO) (Jurkat T cells; dose 0.411523 μM) | cell vialibity normalized to Vehicle (DMSO) (Jurkat T cells; dose 1.23457 μM) | cell vialibity normalized to Vehicle (DMSO) (Jurkat T cells; dose 3.7037 μM) | cell vialibity normalized to Vehicle (DMSO) (Jurkat T cells; dose 11.1111 μM) | cell vialibity normalized to Vehicle (DMSO) (Jurkat T cells; dose 33.3333 μM) | cell vialibity normalized to Vehicle (DMSO) (HeLa cells; dose 0.137174 μM) | cell vialibity normalized to Vehicle (DMSO) (HeLa cells; dose 0.411523 μM) | cell vialibity normalized to Vehicle (DMSO) (HeLa cells; dose 1.23457 μM) | cell vialibity normalized to Vehicle (DMSO) (HeLa cells; dose 3.7037 μM) | cell vialibity normalized to Vehicle (DMSO) (HeLa cells; dose 11.1111 μM) | cell vialibity normalized to Vehicle (DMSO) (HeLa cells; dose 33.3333 μM) | also measured
1 | C[C@H]1c2cccc(O)c2C(=O)C2=C(O)[C@]3(O)C(=O)C(C(N)=O)=C(O)[C@@H](N(C)C)[C@@H]3[C@@H](O)[C@@H]21 [DOX] | 97.7577 and 100.716 | 94.3943 and 94.2074 | 85.067 and 89.3024 | 79.6792 and 82.0461 | 56.1352 and 52.9274 | 25.8642 and 25.3348 | 21.3952 and 21.8001 | 5.254 and 4.351 | 94.1176 and 108.66 | 95.2614 and 97.0588 | 97.7941 and 96.1601 | 99.2647 and 106.127 | 82.9248 and 78.6765 | 10.049 and 10.3758 | 99.8907 | 100.467 and 99.0837 | 99.4691 and 99.9582 | 100.07 and 93.5237 | 94.9721 and 92.1866 | 96.9079 and 96.5877 | cell vialibity normalized to Vehicle (DMSO) (Hek293 cells; HEK293, dose 3.7037 μM): 85.4718 and 85.9078; cell vialibity normalized to Vehicle (DMSO) (Jurkat T cells; dose 100 μM): 2.696 and 3.35; cell vialibity normalized to Vehicle (DMSO) (HeLa cells; dose 100 μM): 97.8134 and 89.7632; cell vialibity normalized to Vehicle (DMSO) (HeLa cells; dose 300 μM): 79.6379 and 78.468; cell vialibity normalized to Vehicle (DMSO) (HeLa cells; dose 900 μM): 4.838 and 4.476
2 | CN(C)c1cc(NC(=O)CNC(C)(C)C)c(O)c2c1C[C@H]1C[C@H]3[C@H](N(C)C)C(O)=C(C(N)=O)C(=O)[C@@]3(O)C(O)=C1C2=O [TIGE] | 102.411 and 106.702 | 106.064 and 102.447 | 90.2128 and 81.4539 | 38.3156 and 41.7553 | 48.1383 and 50.0177 | 40.2704 and 46.6888 | 31.6312 and 31.5248 | 7.2695 and 4.539 | 84.3137 and 94.7712 | 86.6013 and 87.2549 | 80.8824 and 75.3268 | 47.0588 and 43.6275 | 16.7484 and 17.0752 | 6.618 and 5.964 | 99.0957 and 99.8329 | 99.7643 and 100.836 | 95.2089 and 96.0446 | 96.0724 and 96.0446 | 92.3538 and 93.0501 | 92.3816 and 88.3426 | cell vialibity normalized to Vehicle (DMSO) (HeLa cells; dose 100 μM): 85.5606 and 88.2068; cell vialibity normalized to Vehicle (DMSO) (HeLa cells; dose 300 μM): 79.8329 and 79.3036; cell vialibity normalized to Vehicle (DMSO) (HeLa cells; dose 900 μM): 37.2702 and 29.1086
3 | C=C1c2cccc(O)c2C(=O)C2=C(O)[C@]3(O)C(=O)C(C(N)=O)=C(O)[C@@H](N(C)C)[C@@H]3[C@@H](O)[C@H]12 [Methacycline, methacycline] |  |  |  |  |  |  |  |  |  |  |  |  |  |  |  |  |  |  |  |  | viability at 0.0457247 µM (PBMCs; dose 0.0457247 μM): 105%; viability at 0.411523 µM (PBMCs; dose 0.411523 μM): 102%; viability at 100 µM (PBMCs; dose 100 μM): 30%; cell vialibity normalized to Vehicle (DMSO) (Jurkat T cells; 72 h, dose 0.0457247 μM, Fig. 1A): 104.711 and 102.732 and 106.75; cell vialibity normalized to Vehicle (DMSO) (Jurkat T cells; 72 h, dose 0.137174 μM, Fig. 1A): 102.378 and 109.807 and 118.32; cell vialibity normalized to Vehicle (DMSO) (Jurkat T cells; 72 h, dose 0.411523 μM, Fig. 1A): 103.32 and 108.822 and 104.75; cell vialibity normalized to Vehicle (DMSO) (Jurkat T cells; 72 h, dose 1.23457 μM, Fig. 1A): 108.031 and 101.209 and 106; cell vialibity normalized to Vehicle (DMSO) (Jurkat T cells; 72 h, dose 3.7037 μM, Fig. 1A): 100.628 and 106.046 and 105.75; cell vialibity normalized to Vehicle (DMSO) (Jurkat T cells; 72 h, dose 11.1111 μM, Fig. 1A): 118.035 and 121.182 and 107.162; cell vialibity normalized to Vehicle (DMSO) (Jurkat T cells; 72 h, dose 33.3333 μM, Fig. 1A): 32.5707 and 32.2436 and 34.2424; cell vialibity normalized to Vehicle (DMSO) (Jurkat T cells; 72 h, dose 100 μM, Fig. 1A): 20.0538 and 20.6001 and 28.3196; cell vialibity normalized to Vehicle (DMSO) (Jurkat T cells; 72 h, dose 300 μM, Fig. 1A): 11.2607 and 14.1961 and 17.0248
